Assay results: US6780431B1, “Substituted benzylthiazolidine-2,4-dione derivatives” (Kyorin Pharmaceutical Co., Ltd., priority 1999, dated 2004)
Like-named read-outs stand apart in the source and are kept apart here.

Tests used:
[1] = target: T1, human type PPARα ligand-binding domain fused with yeast transcription factor DNA-binding domain (Homo sapiens, UniProt Q07869); assay: Test of transactivation on PPARα (CHO cells, reporter plasmid, CAT activity)
T1 sequence (Q07869 239-466 limits assumed): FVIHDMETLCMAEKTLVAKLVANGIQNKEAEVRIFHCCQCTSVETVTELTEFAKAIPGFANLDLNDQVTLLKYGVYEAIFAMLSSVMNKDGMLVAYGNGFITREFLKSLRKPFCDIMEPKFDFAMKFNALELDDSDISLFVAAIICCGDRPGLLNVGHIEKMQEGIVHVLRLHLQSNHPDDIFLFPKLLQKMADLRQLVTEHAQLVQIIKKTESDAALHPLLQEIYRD
Procedure: (§1) Test of Transactivation on Peroxisome Proliferator-activated Receptors α and β
(§2) After 24 hours, CAT activity and β-galactosidase activity were measured.

[2] = target: T2, human PPARγ ligand-binding domain fused with yeast transcription factor DNA-binding domain (Homo sapiens, UniProt P37231); assay: Test of transactivation on PPARγ (CHO cells, reporter plasmid, CAT activity)
T2 sequence (P37231 238-503 limits assumed): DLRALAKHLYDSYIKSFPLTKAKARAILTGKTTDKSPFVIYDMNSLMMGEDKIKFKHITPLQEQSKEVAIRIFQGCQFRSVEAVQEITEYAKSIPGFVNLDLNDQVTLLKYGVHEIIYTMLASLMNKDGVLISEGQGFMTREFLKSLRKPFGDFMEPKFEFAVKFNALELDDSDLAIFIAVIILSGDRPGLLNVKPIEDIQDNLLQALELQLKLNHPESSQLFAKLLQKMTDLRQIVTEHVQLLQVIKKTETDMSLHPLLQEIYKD
Procedure: as §1, §2

| Compound | melting point | EC50 [1] | EC50 [2] | EC50 ([1]; read-out: Transactivation PPARα EC50, CHO cells, 24 hours, CAT activity with β-galactosidase internal standard) |
| --- | --- | --- | --- | --- |
| COc1ccc(CC2SC(=O)NC2=O)cc1C(=O)NCc1ccc(OC(C)C)cc1 (stereo not drawn) (hydrate or solvate) [Example 6] | 79 to 81.5 °C |  |  |  |
| CCOc1ccc(CNC(=O)c2cc(CC3SC(=O)NC3=O)ccc2OC)cc1 (stereo not drawn) [Example 5] | 130 to 132 °C | 0.43 µM | 0.3 µM |  |
| COc1ccc(CC2SC(=O)NC2=O)cc1C(=O)NCc1ccc(Cl)c(Cl)c1 (stereo not drawn) [Example 9] |  | 0.7 µM | 1.1 µM |  |
| COc1ccc(CC2SC(=O)NC2=O)cc1C(=O)NCc1ccc(Br)cc1 (stereo not drawn) [Example 2] | 198 to 200 °C | 0.49 µM | 0.29 µM |  |
| COc1ccc(CC2SC(=O)NC2=O)cc1C(=O)NCc1ccc(Cl)c(Cl)c1 (stereo not drawn) (hydrate or solvate) [Example 9] | 181 to 182 °C |  |  |  |
| COc1ccc(CC2SC(=O)NC2=O)cc1C(=O)NCc1ccc(Cl)cc1Cl (stereo not drawn) (hydrate or solvate) [Example 8] | 188 to 189 °C |  |  |  |
| COc1ccc(CC2SC(=O)NC2=O)cc1C(=O)NCc1ccc(OC(C)C)cc1 (stereo not drawn) [Example 6] |  | 0.76 µM | 0.11 µM |  |
| CCCOc1ccc(CNC(=O)c2cc(CC3SC(=O)NC3=O)ccc2OC)cc1 (stereo not drawn) [Example 7] |  | 0.11 µM | 1.8 µM |  |
| CCCCC/C=C\C/C=C\C=C\[C@@H](O)C/C=C\CCCC(=O)O [(8S)-HETE, reference compound] |  |  |  | 1.3 µM |
| COc1ccc(CC2SC(=O)NC2=O)cc1C(=O)NCc1ccc([N+](=O)[O-])cc1 (stereo not drawn) [Example 1, N-[(4-Nitrophenyl)methyl]-5-[(2,4-dioxothiazolidin-5-yl)methyl]-2-methoxybenzamide] | 236.5 to 238.5 °C | 0.53 µM | 1.6 µM |  |
| COc1ccc(CC2SC(=O)NC2=O)cc1C(=O)NCc1cccc(OC(F)(F)F)c1 (stereo not drawn) [Example 4] |  | 0.18 µM | 0.36 µM |  |
| COc1ccc(CC2SC(=O)NC2=O)cc1C(=O)NCc1ccc(Cl)cc1 (stereo not drawn) [Example 3] | 199 to 201 °C | 0.26 µM | 0.4 µM |  |
| COc1ccc(CC2SC(=O)NC2=O)cc1C(=O)NCc1ccc(Cl)cc1Cl (stereo not drawn) [Example 8] |  | 0.22 µM | 0.28 µM |  |
| CCCOc1ccc(CNC(=O)c2cc(CC3SC(=O)NC3=O)ccc2OC)cc1 (stereo not drawn) (hydrate or solvate) [Example 7] | 132 to 133 °C |  |  |  |
